# Reference: patent publication US20230074200A1 (priority 2021, published 2023)
# “And” between values parts separate entries of the source, which are not always exact repeats. Equal entries are not always repeated. Where two headings read alike, the source gives them in different places.
# What was measured:
# [1] = rat, in vivo, sc, 2 mg/kg
# [2] = tested on: rats lethally challenged with 110 U/kg BoNT/A (2.5 LD50); conditions: rat, in vivo
# [3] = tested on: rats lethally intoxicated with 2.5 LD50 BoNT/A; conditions: rat, in vivo
# [4] = rat, in vivo; for behavioral seizure (%) / gait change (%) / max Racine score / mortality (%) / salivation (%): sc
# [5] = rat, in vivo; for behavioral seizure (%) / gait change (%) / max Racine score / mortality (%) / salivation (%): sc; remark: listed apart in the source
# [6] = rat, in vivo
# [7] = tested on: diaphragm motor endplates of BoNT/A intoxicated rats; conditions: rat, in vivo
# [8] = tested on: isolated mouse diaphragms poisoned by multiple BoNT serotypes; conditions: cited from earlier work
# BoNT/A-intoxicated mice = conditions: mouse, in vivo; cited from earlier work
structure (smiles),measurement,setting,value
"Nc1ccncc1N [3,4-DAP, 3,4-diaminopyridine]",VO2,[1],transient increases
same,respiratory rate,[1],transient increases
same,tidal volume,[1],transient increases
same,survival rate at the final injection,[2],100%
same,time to reduction of toxic signs compared to vehicle,[2],≤ 30 min
same,time after cessation of treatment at which toxic signs worsened,[2]; 2 mg/kg,approximately 1.5 h
same,time of death after the final injection,[2]; 2 mg/kg,2 to 4 h
same,functional toxicity or loss of efficacy throughout the infusion period,[3],no evidence of functional toxicity or loss of efficacy
same,symptomatic rebound following cessation of infusion,[3],without symptomatic rebound
same,time by which all rats were deceased following cessation of infusion,[3],≤ 12 h
same,time by which toxic signs resolved,[3],≤ 14 days
same,time by which toxic signs stabilized,[3],≤ 2 days
same,time to worsening of toxic signs following cessation of infusion,[3],3 to 6 h
same,toxic signs compared to vehicle,[3],improved
same,behavioral signs of neurological toxicity during infusion,[4],not observed
same,behavioral seizure (%),[4]; 0.36 mg/kg,"0, 0%"
same,gait change (%),[4]; 0.36 mg/kg,0%
same,max Racine score,[4]; 0.36 mg/kg,"0, 0"
same,mortality (%),[4]; 0.36 mg/kg,0%
same,salivation (%),[4]; 0.36 mg/kg,0%
same,behavioral seizure (%),[4]; 0.72 mg/kg,"0, 0%"
same,gait change (%),[4]; 0.72 mg/kg,0%
same,max Racine score,[4]; 0.72 mg/kg,"0, 0"
same,mortality (%),[4]; 0.72 mg/kg,0%
same,salivation (%),[4]; 0.72 mg/kg,0%
same,behavioral seizure (%),[4]; 1.44 mg/kg,"0, 0%"
same,gait change (%),[4]; 1.44 mg/kg,0%
same,max Racine score,[4]; 1.44 mg/kg,"0, 0"
same,mortality (%),[4]; 1.44 mg/kg,0%
same,salivation (%),[4]; 1.44 mg/kg,0%
same,physiological indicators of acute neurological toxicity,[5]; 2 mg/kg,did not elicit physiological indicators of acute neurological toxicity
same,physiological indicators of acute neurological toxicity,[5]; 8 mg/kg,did not elicit physiological indicators of acute neurological toxicity
same,behavioral seizure (%),[5]; 1 mg/kg,"0, 0%"
same,gait change (%),[5]; 1 mg/kg,0%
same,max Racine score,[5]; 1 mg/kg,"0, 0"
same,mortality (%),[5]; 1 mg/kg,0%
same,salivation (%),[5]; 1 mg/kg,0%
same,behavioral seizure (%),[5]; 2 mg/kg,"0, 0%"
same,gait change (%),[5]; 2 mg/kg,0%
same,max Racine score,[5]; 2 mg/kg,"0, 0"
same,mortality (%),[5]; 2 mg/kg,0%
same,salivation (%),[5]; 2 mg/kg,0%
same,behavioral seizure (%),[5]; 8 mg/kg,"0, 0%"
same,gait change (%),[5]; 8 mg/kg,0%
same,max Racine score,[5]; 8 mg/kg,"0, 0"
same,mortality (%),[5]; 8 mg/kg,0%
same,salivation (%),[5]; 8 mg/kg,0%
same,behavioral seizure (%),[5]; 16 mg/kg,"0, 0%"
same,gait change (%),[5]; 16 mg/kg,50%
same,max Racine score,[5]; 16 mg/kg,"0, 0"
same,mortality (%),[5]; 16 mg/kg,0%
same,salivation (%),[5]; 16 mg/kg,25%
same,relationship between infusion dose rate and CSS (serum),[6],linearly related to infusion dose
same,mean EPP success rate,[7]; 0.98 mg/kg,75.4±3.5%
same,mean EPP success rate,[7]; 1.44 mg/kg,60.5±5.3% and 79.7±2.5%
same,muscle paralysis,[8],reverse muscle paralysis
same,respiratory and skeletal muscle weakness,BoNT/A-intoxicated mice,reversed respiratory and skeletal muscle weakness
same,respiratory function and survival,BoNT/A-intoxicated mice,improve respiratory function and prolong survival
